# Source: BindingDB's records for patent US20250352549 (Avelos Therapeutics, 2025)
# Molecular target: T1, Serine/threonine-protein kinase greatwall (Human, UniProt Q96GX5)
# T1 sequence (Q96GX5 whole entry): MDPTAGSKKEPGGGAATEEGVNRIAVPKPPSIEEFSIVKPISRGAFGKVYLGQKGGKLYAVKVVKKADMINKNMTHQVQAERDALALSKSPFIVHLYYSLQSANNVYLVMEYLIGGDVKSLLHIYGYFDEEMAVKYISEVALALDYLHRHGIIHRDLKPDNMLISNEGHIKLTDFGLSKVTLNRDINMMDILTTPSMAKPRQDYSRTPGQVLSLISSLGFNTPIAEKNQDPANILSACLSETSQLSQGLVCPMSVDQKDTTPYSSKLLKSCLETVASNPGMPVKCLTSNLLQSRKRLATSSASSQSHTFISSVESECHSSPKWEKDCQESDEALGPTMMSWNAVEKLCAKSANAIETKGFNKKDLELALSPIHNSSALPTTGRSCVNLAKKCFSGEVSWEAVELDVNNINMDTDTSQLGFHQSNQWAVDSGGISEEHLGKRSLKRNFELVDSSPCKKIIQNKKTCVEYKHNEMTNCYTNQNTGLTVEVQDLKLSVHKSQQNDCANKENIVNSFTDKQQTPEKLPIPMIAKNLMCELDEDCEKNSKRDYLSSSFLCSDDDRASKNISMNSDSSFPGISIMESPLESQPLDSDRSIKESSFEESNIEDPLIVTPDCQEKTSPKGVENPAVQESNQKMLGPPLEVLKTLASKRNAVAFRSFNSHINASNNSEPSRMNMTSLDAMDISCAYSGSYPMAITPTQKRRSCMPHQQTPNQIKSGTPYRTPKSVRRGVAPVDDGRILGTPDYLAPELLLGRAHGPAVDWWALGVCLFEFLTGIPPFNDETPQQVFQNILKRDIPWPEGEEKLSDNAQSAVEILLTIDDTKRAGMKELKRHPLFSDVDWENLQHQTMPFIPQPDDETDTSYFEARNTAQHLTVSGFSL
# Experiment: MASTL Activity Assay
# Description: Wild-type human active MASTL (154 pM) was incubated in assay buffer (50 mM HEPES, 100 mM NaCl, 0.1 mM EGTA, 10 mM MgCl2, 0.01% Tween-20, 0.5 mM TCEP, pH 7.5) with biotin tagged 40-mer ENSA peptide (10 nM), test compound and ATP (18 μM) for 60 minutes at room temperature. Test compounds were assayed using a 12-point dose range consisting of a 0, DMSO control and 10 sequential doses consisting from 0.0005, 0.002, 0.005, 0.014, 0.04, 0.12, 0.37, 1.11, 3.33 and 10 μM. The DMSO concentration was the same (1%) in all samples. An equal volume of detection buffer (assay buffer+267.5 pM Ab-K, 1.25 nM SA-D2, 20 mM EDTA and 400 mM KF) was added to stop the reaction to make a final volume of 20 μl, RT for 60 mins. Activity was measured using a plate reader (PerkinElmer EnSight) by the FRET signal generated between SA-D2 (streptavidin-D2) and Ab-K (anti-phospho-Serine 67 ENSA antibody (rabbit polyclonal, using standard techniques by a commercial supplier) conjugated to Cryptate). HTRF reagents (CisBio) were prepared as per the manufacturer recommendations. The 40-mer biotin-tagged ENSA peptide (synthesised by Bionics) used was based around Serine 67 on ENSA ([…]).
row,SMILES,IC50
1,"CC(C)C(Nc1nc(N)nc(-c2ccc3cn[nH]c3c2)n1)c1c[nH]c(C(F)(F)F)n1 (stereo unspecified) [US20250352549, Example 156]",< 500 nM
2,"CCC(Nc1nc(N)nc(-c2ccc3cn[nH]c3c2)n1)c1c[nH]c(C(F)(F)F)n1 (stereo unspecified) [US20250352549, Example 157]",< 500 nM
3,"Cc1ncc2ccc(-c3nc(N)nc(NC(c4nc(C(F)(F)F)no4)C(C)C)n3)cn12 (stereo unspecified) [US20250352549, Example 158]",> 1000 nM
4,"Cc1ncc2ccc(-c3nc(N)nc(NCc4nc(C(F)(F)F)no4)n3)cn12 [US20250352549, Example 159]",in the range around 750 nM
5,"Cc1ncc2ccc(-c3nc(N)nc(NC(C)(C)c4nc(C(F)(F)F)no4)n3)cn12 [US20250352549, Example 160]",in the range around 750 nM
6,"Cc1ncc2ccc(-c3nc(N)nc(N(C)C(c4c[nH]c(C(F)(F)F)n4)C(C)C)n3)cn12 (stereo unspecified) [US20250352549, Example 161]",in the range around 750 nM
7,"Cc1ncc2ccc(-c3nc(N)nc(N(C)Cc4cccc(F)c4Cl)n3)cn12 [US20250352549, Example 162]",in the range around 750 nM
8,"Cc1ncc2ccc(-c3nc(N)nc(N(C)Cc4cccc(Cl)c4F)n3)cn12 [US20250352549, Example 163]",< 500 nM
9,"Cc1ncc2ccc(-c3nc(N)nc(N(C)Cc4c[nH]c(C(F)(F)F)n4)n3)cn12 [US20250352549, Example 164]",< 500 nM
10,"Cc1ncc2ccc(-c3nc(N)nc(NC(c4cn(C)c(C(F)(F)F)n4)C(C)C)n3)cn12 (stereo unspecified) [US20250352549, Example 165]",< 500 nM
11,"Cc1ncc2ccc(-c3nc(N)nc(NC(c4nnc(C(F)(F)F)o4)C(C)C)n3)cn12 (stereo unspecified) [US20250352549, Example 166]",> 1000 nM
12,"CC(C)C(Nc1nc(N)nc(-c2ccc3cn[nH]c3c2)n1)c1ccn(C(F)F)n1 (stereo unspecified) [US20250352549, Example 167]",< 500 nM
13,"Cc1ncc2ccc(-c3nc(N)nc(NC(c4ccc(C#N)cn4)C(C)C)n3)cn12 (stereo unspecified) [US20250352549, Example 168]",> 1000 nM
14,"Cc1ncc2ccc(-c3nc(N)nc(N(C)C(c4cn(C)c(C(F)(F)F)n4)C(C)C)n3)cn12 (stereo unspecified) [US20250352549, Example 169]",in the range around 750 nM
15,"CNc1nc(NC(c2ccn(C(F)F)n2)C(C)C)nc(-c2ccc3cn[nH]c3c2)n1 (stereo unspecified) [US20250352549, Example 171]",< 500 nM
16,"CNc1nc(NC(C)(C)c2ccn(C(F)F)n2)nc(-c2ccc3cnn(C)c3c2)n1 [US20250352549, Example 172]",< 500 nM
17,"Cn1ncc2ccc(-c3nc(N)nc(NC(C)(C)c4c[nH]c(C(F)(F)F)n4)n3)cc21 [US20250352549, Example 174]",< 500 nM
18,"Cc1ncc2ccc(-c3nc(N)nc(NC(C)(C)c4ccn(CCN)n4)n3)cn12 [US20250352549, Example 175]",< 500 nM
19,"Cc1ncc2ccc(-c3nc(N)nc(NC(c4ccc(CN)cn4)C(C)C)n3)cn12 (stereo unspecified) [US20250352549, Example 178]",< 500 nM
20,"CC(C)CC(Nc1nc(N)nc(-c2ccc3cn[nH]c3c2)n1)c1c[nH]c(C(F)(F)F)n1 (stereo unspecified) [US20250352549, Example 179]",< 500 nM
21,"Cc1nc(C)n2cc(-c3nc(N)nc(NC(c4c[nH]c(C(F)(F)F)n4)C(C)C)n3)ccc12 (stereo unspecified) [US20250352549, Example 181]",< 500 nM
